The values that follow come from patent publication US20060004197A1, “Sulfonamide-based compounds as protein tyrosine kinase inhibitors” (priority 2004, published 2006).

For the assay, the target named is T1, Recombinant human Src (Homo sapiens, UniProt P12931).
T1 construct: made in house; host or cells: baculovirus-insect cell system
In words: Src tyrosine kinase activity, poly E4Y / 32P-ATP phosphorylation assay. Format: biochemical.

The mark [1] stands for this setting: compound at 15 μg/mL, read-out: % Inhibition at 15 μg/mL Src %.
The mark [2] stands for this setting: Table 6, Formula V compounds, compound at 15 μg/mL, read-out: % Inhibition at 15 μg/mL Src (%).
Setting [3] is: poly E4Y / 32P-ATP, Formula IV compounds.
Setting [4] is: Table 3, Formula II compounds, NI = no inhibition at 100 μg/mL.
Setting [5] is: Table 3, compound at 15 μg/mL, read-out: % Inhibition at 15 μg/mL Src (%).

As a reminder, the IC50 is the concentration needed to halve the response being measured.

Read-outs that look alike come from different tables or passages of the source.

T1 sequence (P12931 whole entry): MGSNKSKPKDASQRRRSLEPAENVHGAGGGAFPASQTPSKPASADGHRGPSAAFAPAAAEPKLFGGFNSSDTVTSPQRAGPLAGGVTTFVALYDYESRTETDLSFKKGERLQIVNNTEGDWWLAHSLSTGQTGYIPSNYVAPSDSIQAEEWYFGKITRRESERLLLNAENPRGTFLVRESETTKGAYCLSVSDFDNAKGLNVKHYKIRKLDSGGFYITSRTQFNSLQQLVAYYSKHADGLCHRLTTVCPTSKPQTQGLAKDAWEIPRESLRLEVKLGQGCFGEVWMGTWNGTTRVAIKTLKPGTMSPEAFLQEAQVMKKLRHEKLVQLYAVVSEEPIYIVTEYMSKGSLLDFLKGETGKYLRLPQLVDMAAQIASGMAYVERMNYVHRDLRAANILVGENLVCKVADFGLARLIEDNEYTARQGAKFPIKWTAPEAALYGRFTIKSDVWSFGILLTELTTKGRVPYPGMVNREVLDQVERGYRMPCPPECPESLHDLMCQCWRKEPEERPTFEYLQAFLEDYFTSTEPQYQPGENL

On to `COc1ccc(OCc2ccc(C(N)=O)c(NS(=O)(=O)c3ccc(C)cc3)c2)cc1` [Compound 71v, 4-(4-methoxy-phenoxymethyl)-2-(4-toluenesulfonylamino)-benzamide], for which the inhibition at 15 µg/mL under setting [1] came to 10%.

For `Cc1ccc(C(=O)Nc2cc(N3CCOCC3)c([N+](=O)[O-])cc2NC(=O)c2ccc(C)cc2)cc1` [Compound 71y, N-(4-morpholin-4-yl-5-nitro-2-(4-toluoylamino)-phenyl)-4-toluamide], the inhibition at 15 µg/mL under setting [1] was 14%.

Turning to `COc1ccc(Oc2ccc(N)c(N(C)S(=O)(=O)c3ccc(C)cc3)c2)cc1` [Compound 71t, N-[2-amino-5-(4-methoxy-phenoxy)-phenyl]-N-methyl-4-toluenesulfonamide], under setting [1], the inhibition at 15 µg/mL is 0%.

Consider `COc1ccc(Oc2ccc3c(c2)[nH]c(=O)n3S(=O)(=O)c2ccc(C)cc2)cc1` [Compound 72b, 5-(4-methoxy-phenoxy)-1-(4-toluenesulfonyl)-1,3-dihydro-benzoimidazol-2-one], for which the inhibition at 15 µg/mL under setting [2] turned out to be 19%.

Turning to `COc1ccc(Oc2ccc(NS(=O)(=O)c3ccc(C)cc3)c(NC(=O)c3ccc(C)cc3)c2)cc1` [Compound 71q, N-[5-(4-methoxy-phenoxy)-2-(4-toluenesulfonylamino)-phenyl]-4-toluamide], the IC50 under setting [3] is 99 µM.

On to `Nc1cc(SCc2ccccc2Cl)c([N+](=O)[O-])cc1NS(=O)(=O)c1ccc(Cl)c2nonc12` [Compound 71ll, N-[2-amino-4-(2-chloro-benzylsulfanyl)-5-nitro-phenyl]-7-chloro-benzo[1,2,5]oxadiazole-4-sulfonamide], for which, under setting [1], the inhibition at 15 µg/mL was 26%.

Take `CCCCc1ccc(S(=O)(=O)Nc2ccc(Oc3ccc(OC)cc3)cc2NS(=O)(=O)c2ccc(C)cc2)cc1` [Compound 22x, 4-butyl-N-[4-(4-methoxy-phenoxy)-2-(4-toluenesulfonylamino)-phenyl]-benzenesulfonamide]: under setting [4], the IC50 is 36 µM.

Regarding `COc1ccc(Oc2ccc(NS(=O)(=O)c3ccc(C)cc3)c(NS(=O)(=O)c3c(C)noc3C)c2)cc1` [Compound 22n, 3,5-dimethyl-N-[5-(4-methoxy-phenoxy)-2-(4-toluenesulfonylamino)-phenyl]-isoxazole-4-sulfonamide], the inhibition at 15 µg/mL under setting [5] was determined as 5%.

As for `Cc1ccc(S(=O)(=O)Nc2cc(NCC3(O)CCCCC3)c([N+](=O)[O-])cc2NS(=O)(=O)c2ccc(C)cc2)cc1` [Compound 9i, N-[4-(1-hydroxy-cyclohexylmethyl-amino)-5-nitro-2-(4-toluenesulfonylamino)-phenyl]-4-toluenesulfonamide], the inhibition at 15 µg/mL (Table 2, compound at 15 ug/mL, read-out: % Inhibition at 15 ug/mL Src (%)) was 18%.

For the compound `Cc1ccc(S(=O)(=O)Nc2ccc(NS(=O)(=O)c3c(C)noc3C)cc2NS(=O)(=O)c2ccc(C)cc2)cc1` [Compound 22j, 3,5-dimethyl-N-[3,4-bis-(4-toluenesulfonylamino)-phenyl]-isoxazole-4-sulfonamide], the IC50 under setting [4] was found to be 25 µM.

On to `COc1ccc(Oc2ccc(NS(=O)(=O)c3ccc(C)cc3)c(NCc3ccc(C)cc3)c2)cc1` [Compound 71hh, N-[4-(4-methoxy-phenoxy)-2-(4-methyl-benzylamino)-phenyl]-4-toluenesulfonamide], for which, under setting [1], the inhibition at 15 µg/mL came to 23%.

On to `COc1ccc(Oc2ccc(NS(=O)(=O)c3cccc4cnccc34)c(NS(=O)(=O)c3ccc(C)cc3)c2)cc1` [Compound 22cc, N-[4-(4-methoxy-phenoxy)-2-(4-toluenesulfonylamino)-phenyl]-isoquinoline-5-sulfonamide], for which, under setting [4], the 50% inhibitory concentration (IC50) was 45 µM.

`COc1ccc(Oc2ccc(NCc3ccc(C#N)cc3)c(NS(=O)(=O)c3ccc(C)cc3)c2)cc1` [Compound 71d, N-[2-(4-cyano-benzylamino)-5-(4-methoxy-phenoxy)-phenyl]-4-toluenesulfonamide]: under setting [3], the IC50 came to 557 µM.

Consider `COc1ccc(Oc2ccc(NCc3ccc4ccccc4n3)c(NS(=O)(=O)c3ccc(C)cc3)c2)cc1` [Compound 71g, N-{5-(4-methoxy-phenoxy)-2-[(quinolin-2-ylmethyl)-amino]-phenyl}-4-toluenesulfonamide], for which the inhibition at 15 µg/mL under setting [1] worked out at 10%.

In the case of `Cc1ccc(S(=O)(=O)Nc2cc(SCc3ccccc3Cl)ccc2NS(C)(=O)=O)cc1` [Compound 22ll, N-[5-(2-chloro-benzylsulfanyl)-2-methanesulfonylamino-phenyl]-4-toluenesulfonamide], the inhibition at 15 µg/mL under setting [5] is 17%.

Consider `C=CCOc1ccc(NS(=O)(=O)c2ccc(C)cc2)c(NS(=O)(=O)c2ccc(C)cc2)c1` [Compound 12cc, N-[4-allyloxy-2-(4-toluenesulfonylamino)-phenyl]-4-toluenesulfonamide], for which the inhibition at 15 µg/mL under setting [5] worked out at 19%.

In the case of `COc1ccc(Oc2ccc(NS(=O)(=O)c3ccc(C)cc3)c(N)c2)cc1` [Compound 71l, N-[2-amino-4-(4-methoxy-phenoxy)-phenyl]-4-toluenesulfonamide], under setting [3], the IC50 is 62 µM.

On to `COc1ccc(Oc2ccc3c(c2)n(S(=O)(=O)c2ccc(C)cc2)c(=O)n3S(=O)(=O)c2ccc(C)cc2)cc1` [Compound 72c, 5-(4-methoxy-phenoxy)-1,3-bis-(4-toluenesulfonyl)-1,3-dihydro-benzoimidazol-2-one], for which the inhibition at 15 µg/mL under setting [2] was 22%.

In the case of `COc1ccc(Oc2ccc(NCc3cc4ccccc4o3)c(NS(=O)(=O)c3ccc(C)cc3)c2)cc1` [Compound 71f, N-[2-[(benzofuran-2-ylmethyl)-amino]-5-(4-methoxy-phenoxy)-phenyl]-4-toluenesulfonamide], the IC50 under setting [3] worked out at 627 µM.

On to `Cc1ccc(S(=O)(=O)Nc2cc(SCc3ccccc3Cl)ccc2N)cc1` [Compound 71kk, N-[2-amino-5-(2-chloro-benzylsulfanyl)-phenyl]-4-toluenesulfonamide], for which the inhibition at 15 µg/mL under setting [1] is 29%.

In the case of `COc1ccc(Oc2ccc(NS(=O)(=O)c3ccc(C)cc3)c(NS(=O)(=O)c3ccc(S(C)(=O)=O)cc3)c2)cc1` [Compound 22ff, 4-methanesulfonyl-N-[5-(4-methoxy-phenoxy)-2-(4-toluenesulfonylamino)-phenyl]-benzenesulfonamide], under setting [5], the inhibition at 15 µg/mL was determined as 2%.

For `Cc1ccc(S(=O)(=O)Nc2ccc(OCCCCCCCCO)cc2NS(=O)(=O)c2ccc(C)cc2)cc1` [Compound 12dd, N-[4-(8-hydroxy-octyloxy)-2-(4-toluenesulfonylamino)-phenyl]-4-toluenesulfonamide], the inhibition at 15 µg/mL under setting [5] amounted to 36%.

On to `COc1ccc(Oc2cc(NS(=O)(=O)c3ccc(C)cc3)c(NS(=O)(=O)c3ccc(C)cc3)cc2C(F)(F)F)cc1` [Compound 38b, N-[4-(4-methoxy-phenoxy)-2-(4-toluenesulfonylamino)-5-trifluoromethyl-phenyl]-4-toluenesulfonamide], for which, under “Table 4, compound at 15 μg/mL, read-out: % Inhibition at 15 μg/mL Src (%)”, the inhibition at 15 µg/mL worked out at 50%.

In the case of `Cc1ccc(S(=O)(=O)Nc2cc(F)c(SCc3ccccc3Cl)cc2NS(=O)(=O)c2ccc(C)cc2)cc1` [Compound 38c, N-[4-(2-chloro-benzylsulfanyl)-5-fluoro-2-(4-toluenesulfonylamino)-phenyl]-4-toluenesulfonamide], where the note is “Table 4, Formula III compounds, NI = no inhibition at 100 μg/mL”, the IC50 stood at 2.2 µM.

Regarding `Cc1ccc(S(=O)(=O)Nc2ccc(S(=O)(=O)Cc3ccccc3Cl)cc2NS(=O)(=O)c2ccc(C)cc2)cc1` [Compound 71nn, N-[4-(2-chloro-phenylmethanesulfonyl)-2-(4-toluenesulfonylamino)-phenyl]-4-toluenesulfonamide], under setting [1], the inhibition at 15 µg/mL is 46%.
